Earlier results, collected in US20050123612A1, “Ribavirin granulate for producing coated tablets” (priority 2001, published 2005).

System: embryo development
Settings: animal experiments; in particular first six weeks of embryo development

## NC(=O)c1ncn([C@@H]2O[C@H](CO)[C@@H](O)[C@H]2O)n1 [ribavirin, 1-β-D-Ribafuranosyl-1,2,4-triazole-3-carboxamide]
  teratogenicity: teratogenic
